Source: ChEMBL document CHEMBL1201862, “PubChem BioAssay data set” (2004)
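A five-concentration, 48-hour dose response in 96-well plates underlies each endpoint, interpolated linearly between surrounding concentrations. GI50 marks 50% less growth.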 Active and inactive are the calls of the source. Cut-off read from the data, not from the text of the source: active = GI50 up to about 1.1 µM and inactive = higher.

Columns and labels:
Assay in all cases: inhibition of tumour cell growth, NCI panel, 48 h
[1] = test system: HCT-15
[2] = test system: SK-MEL-5
[3] = test system: RPMI-8226
[4] = test system: BT-549
[5] = test system: A549
[6] = test system: OVCAR-8
[7] = test system: PC-3
[8] = test system: CCRF-CEM
[9] = test system: OVCAR-5
[10] = test system: LOX IMVI
[11] = test system: MOLT-4
[12] = test system: IGROV-1
[13] = test system: Malme-3M
[14] = test system: NCI/ADR-RES
[15] = test system: A498
[16] = test system: EKVX
[17] = test system: TK-10
[18] = test system: HOP-62
[19] = test system: SW-620

Compound: CC(=O)Nc1ccc2c3c(cc(O)c2c1)N(C(=O)CCCCC(=O)N1CC(CCl)c2c1cc(O)c1cc(NC(C)=O)ccc21)CC3CCl (centres undefined)
- GI50 [1]: 12.9 µM
- GI50 [2]: 0.129 µM (active)
- GI50 [3]: 0.169 µM (active)
- GI50 [4]: 0.183 µM (active)
- GI50 [5]: 0.147 µM (active)
- GI50 [6]: 0.253 µM (active)
- GI50 [7]: 0.526 µM (active)
- GI50 [8]: < 0.01 µM (active)
- GI50 [9]: 1.37 µM (inactive)
- GI50 [10]: 0.0313 µM (active)
- GI50 [11]: < 0.01 µM (active)
- GI50 [12]: 0.352 µM (active)
- GI50 [13]: 0.149 µM (active)
- GI50 [14]: 21.3 µM (inactive)
- GI50 [15]: 0.127 µM (active)
- GI50 [16]: 2.38 µM (inactive)
- GI50 [17]: 2.19 µM (inactive)
- GI50 [18]: 0.177 µM (active)
- GI50 [19]: 0.518 µM (active)

Compound: CNC(=S)/C(C#N)=C(\N)N1CCN(C)CC1
- GI50 [1]: > 100 µM
- GI50 [2]: > 100 µM (inactive)
- GI50 [3]: > 100 µM (inactive)
- GI50 [4]: > 100 µM (inactive)
- GI50 [5]: > 100 µM (inactive)
- GI50 [6]: > 100 µM (inactive)
- GI50 [7]: > 100 µM (inactive)
- GI50 [8]: > 100 µM (inactive)
- GI50 [9]: > 100 µM (inactive)
- GI50 [10]: > 100 µM (inactive)
- GI50 [11]: > 100 µM (inactive)
- GI50 [12]: > 100 µM (inactive)
- GI50 [13]: > 100 µM (inactive)
- GI50 [14]: > 100 µM (inactive)
- GI50 [15]: > 100 µM (inactive)
- GI50 [16]: > 100 µM (inactive)
- GI50 [17]: > 100 µM (inactive)
- GI50 [18]: > 100 µM (inactive)
- GI50 [19]: > 100 µM (inactive)

Compound: Cc1cc2cc3c(cc2c(-c2ccc([N+](=O)[O-])cc2)n1)OCO3
- GI50 [1]: 26.5 µM
- GI50 [2]: 17.4 µM (inactive)
- GI50 [3]: 35.8 µM (inactive)
- GI50 [4]: 17.2 µM (inactive)
- GI50 [5]: 25.8 µM (inactive)
- GI50 [6]: 28.5 µM (inactive)
- GI50 [7]: 44.7 µM (inactive)
- GI50 [8]: 31.6 µM (inactive)
- GI50 [9]: > 100 µM (inactive)
- GI50 [10]: 41.2 µM (inactive)
- GI50 [11]: 22.5 µM (inactive)
- GI50 [12]: 15.5 µM (inactive)
- GI50 [13]: 61.1 µM (inactive)
- GI50 [14]: 44.6 µM (inactive)
- GI50 [15]: > 100 µM (inactive)
- GI50 [16]: 62.2 µM (inactive)
- GI50 [17]: 43.9 µM (inactive)
- GI50 [18]: 19 µM (inactive)
- GI50 [19]: 29.4 µM (inactive)

Compound: CN(C)CC/C=C1\c2ccccc2Sc2ccc(Cl)cc21
- GI50 [1]: 15.4 µM
- GI50 [2]: 14 µM (inactive)
- GI50 [3]: 3.78 µM (inactive)
- GI50 [4]: 15.2 µM (inactive)
- GI50 [5]: 14.6 µM (inactive)
- GI50 [6]: 15.5 µM (inactive)
- GI50 [7]: 12.8 µM (inactive)
- GI50 [8]: 8.2 µM (inactive)
- GI50 [9]: 13.9 µM (inactive)
- GI50 [10]: 13.8 µM (inactive)
- GI50 [11]: 11.5 µM (inactive)
- GI50 [12]: 11.9 µM (inactive)
- GI50 [13]: 12.8 µM (inactive)
- GI50 [14]: 13.8 µM (inactive)
- GI50 [15]: 14.3 µM (inactive)
- GI50 [16]: 10.1 µM (inactive)
- GI50 [17]: 14.5 µM (inactive)
- GI50 [18]: 14.4 µM (inactive)
- GI50 [19]: 16.3 µM (inactive)

Compound: NNC(=O)C1(NC(=O)c2ccccc2)C(c2ccccc2)C(c2ccccc2)=NN1c1ccccc1 (centres undefined)
- GI50 [1]: 18.5 µM
- GI50 [2]: 30 µM (inactive)
- GI50 [3]: 21.1 µM (inactive)
- GI50 [4]: 71.8 µM (inactive)
- GI50 [5]: 43.5 µM (inactive)
- GI50 [6]: 55.5 µM (inactive)
- GI50 [7]: 24.4 µM (inactive)
- GI50 [8]: 8.99 µM (inactive)
- GI50 [9]: 33 µM (inactive)
- GI50 [10]: 23.8 µM (inactive)
- GI50 [11]: 12.7 µM (inactive)
- GI50 [12]: 34.9 µM (inactive)
- GI50 [13]: > 100 µM (inactive)
- GI50 [14]: 32.1 µM (inactive)
- GI50 [15]: > 100 µM (inactive)
- GI50 [16]: 42.3 µM (inactive)
- GI50 [17]: 58.2 µM (inactive)
- GI50 [18]: 34 µM (inactive)
- GI50 [19]: 46.6 µM (inactive)

Compound: CCOC(=O)C1(Cc2ccc3c(c2)CCC3)Cc2cc3c(cc2C1=O)CCC3 (centres undefined)
- GI50 [1]: 58.6 µM
- GI50 [2]: 20.1 µM (inactive)
- GI50 [3]: 19.2 µM (inactive)
- GI50 [4]: 76.7 µM (inactive)
- GI50 [5]: 44 µM (inactive)
- GI50 [6]: > 91.2 µM (inactive)
- GI50 [7]: 16.1 µM (inactive)
- GI50 [8]: 11.9 µM (inactive)
- GI50 [9]: > 100 µM (inactive)
- GI50 [10]: > 71.6 µM (inactive)
- GI50 [11]: 11.9 µM (inactive)
- GI50 [12]: > 100 µM (inactive)
- GI50 [13]: > 61.2 µM (inactive)
- GI50 [14]: 36 µM (inactive)
- GI50 [15]: > 42.7 µM (inactive)
- GI50 [16]: 97.5 µM (inactive)
- GI50 [17]: > 100 µM (inactive)
- GI50 [18]: > 100 µM (inactive)
- GI50 [19]: > 85.1 µM (inactive)

Compound: CC1(C)CC(=O)C2=C(C1)OC1(CC2c2ccc(Cl)cc2)CC(c2ccc(Cl)cc2)C2=C(CC(C)(C)CC2=O)O1 (centres undefined)
- GI50 [1]: 9.62 µM
- GI50 [2]: 14.8 µM (inactive)
- GI50 [3]: 9.46 µM (inactive)
- GI50 [4]: 20.7 µM (inactive)
- GI50 [5]: 13.6 µM (inactive)
- GI50 [6]: 24.7 µM (inactive)
- GI50 [7]: 18.2 µM (inactive)
- GI50 [8]: 15.5 µM (inactive)
- GI50 [9]: 26.9 µM (inactive)
- GI50 [10]: 20.4 µM (inactive)
- GI50 [11]: 3.13 µM (inactive)
- GI50 [12]: 12.5 µM (inactive)
- GI50 [13]: 15.3 µM (inactive)
- GI50 [14]: > 38.5 µM (inactive)
- GI50 [15]: 16 µM (inactive)
- GI50 [16]: 16.1 µM (inactive)
- GI50 [17]: 32.4 µM (inactive)
- GI50 [18]: 15.6 µM (inactive)
- GI50 [19]: 20.7 µM (inactive)

Compound: Fc1cc(C2=C[C@H](c3ccc(Cl)cc3)NC(=S)N2)c(Cl)cc1Cl
- GI50 [1]: 46.8 µM
- GI50 [2]: 11.6 µM (inactive)
- GI50 [3]: 14.9 µM (inactive)
- GI50 [4]: > 100 µM (inactive)
- GI50 [5]: 47.3 µM (inactive)
- GI50 [6]: 39.9 µM (inactive)
- GI50 [7]: 28.3 µM (inactive)
- GI50 [8]: 28.9 µM (inactive)
- GI50 [9]: > 100 µM (inactive)
- GI50 [10]: 48.6 µM (inactive)
- GI50 [11]: 15.6 µM (inactive)
- GI50 [12]: 41.2 µM (inactive)
- GI50 [13]: > 100 µM (inactive)
- GI50 [14]: 64.1 µM (inactive)
- GI50 [15]: 27.7 µM (inactive)
- GI50 [16]: 31.6 µM (inactive)
- GI50 [17]: 45.1 µM (inactive)
- GI50 [18]: 48.2 µM (inactive)
- GI50 [19]: 70.6 µM (inactive)

Compound: O=C(O)c1c2c(c(O)c3c1CN(C1CCCCC1)CO3)OCN(C1CCCCC1)C2
- GI50 [1]: > 100 µM
- GI50 [2]: > 100 µM (inactive)
- GI50 [3]: 40.5 µM (inactive)
- GI50 [4]: > 100 µM (inactive)
- GI50 [5]: > 100 µM (inactive)
- GI50 [6]: 45.1 µM (inactive)
- GI50 [7]: > 100 µM (inactive)
- GI50 [8]: 10.4 µM (inactive)
- GI50 [9]: > 100 µM (inactive)
- GI50 [10]: 21.3 µM (inactive)
- GI50 [11]: 18.5 µM (inactive)
- GI50 [12]: 74.5 µM (inactive)
- GI50 [13]: > 100 µM (inactive)
- GI50 [14]: > 100 µM (inactive)
- GI50 [15]: > 100 µM (inactive)
- GI50 [16]: 47.1 µM (inactive)
- GI50 [17]: > 100 µM (inactive)
- GI50 [18]: 83.2 µM (inactive)
- GI50 [19]: 22 µM (inactive)

Compound: O=C(Nc1cccc(-c2cn3ccccc3n2)c1)c1ccncc1
- GI50 [1]: 24.2 µM
- GI50 [2]: 24.3 µM (inactive)
- GI50 [3]: 17.1 µM (inactive)
- GI50 [4]: 21.7 µM (inactive)
- GI50 [5]: 44.9 µM (inactive)
- GI50 [6]: 34 µM (inactive)
- GI50 [7]: 35.9 µM (inactive)
- GI50 [8]: 27.3 µM (inactive)
- GI50 [9]: > 100 µM (inactive)
- GI50 [10]: 38.3 µM (inactive)
- GI50 [11]: 21.7 µM (inactive)
- GI50 [12]: 40.9 µM (inactive)
- GI50 [13]: 29.3 µM (inactive)
- GI50 [14]: 21.7 µM (inactive)
- GI50 [15]: 76 µM (inactive)
- GI50 [16]: 60.1 µM (inactive)
- GI50 [17]: 56.9 µM (inactive)
- GI50 [18]: 33.2 µM (inactive)
- GI50 [19]: 64.9 µM (inactive)

Compound: O=c1cc(NNCc2ccccc2)[nH]c(=O)[nH]1
- GI50 [1]: > 100 µM
- GI50 [2]: > 100 µM (inactive)
- GI50 [3]: > 100 µM (inactive)
- GI50 [4]: > 100 µM (inactive)
- GI50 [5]: > 100 µM (inactive)
- GI50 [6]: > 100 µM (inactive)
- GI50 [7]: > 100 µM (inactive)
- GI50 [8]: > 100 µM (inactive)
- GI50 [9]: > 100 µM (inactive)
- GI50 [10]: > 100 µM (inactive)
- GI50 [11]: 69.2 µM (inactive)
- GI50 [12]: > 100 µM (inactive)
- GI50 [13]: 80.5 µM (inactive)
- GI50 [14]: > 100 µM (inactive)
- GI50 [15]: > 100 µM (inactive)
- GI50 [16]: > 100 µM (inactive)
- GI50 [17]: > 100 µM (inactive)
- GI50 [18]: > 100 µM (inactive)
- GI50 [19]: > 100 µM (inactive)
